The values below come from patent US9952206B2, “Immunoassay for detecting kratom, its constituents and their use” (Randox Laboratories Limited, priority 2013, dated 2018).

Converted amounts (≈) assume the structure as drawn.

The test system of this test is antibodies of the invention (antisera generated in response to the immunogen of Example 4). Briefly: Competitive chemiluminescent biochip immunoassay, standard curve generation using generated antiserum. The following applies: for IC50 (standard concentration which produces 50% B/B0): biochip-immobilised IgG fraction of antiserum, hapten-HRP conjugate of Example 5; for % CR (percentage cross-reactivity based on 100% specificity to mitragynine): relative to mitragynine = 100%.

Regarding `CCC1CN2CCc3c([nH]c4cccc(O)c34)C2CC1C(=COC)C(=O)OC` [8-Desmethylmitragynine, (E)-2-[(2S,3S,12bS)-3-ethyl-8-hydroxy-1,2,3,4,6,7,12,12b-octahydroindolo[2,3-a]quinozilizin-2-yl]-3-methoxy propenoic acid methyl ester], the “IC50 (standard concentration which produces 50% B/B0)” value was found to be 1.532 ng/mL (≈ 3.98 nM) and the “% CR (percentage cross-reactivity based on 100% specificity to mitragynine)” value is 77.87%. The same compound yielded a B/Bo (calibrator 0.313 ng/ml) of 74%. The B/Bo (calibrator 0.625 ng/ml) is on record as 63%. In addition, the B/Bo (calibrator 1.250 ng/ml) was 54%. For the same compound, the B/Bo (calibrator 2.500 ng/ml) was found to be 42%. Moreover, the B/Bo (calibrator 5.000 ng/ml) was found to be 29%. Also, for the setting “calibrator 10.000 ng/ml”, the B/Bo turned out to be 18%. The compound further displayed a B/Bo (calibrator 20.000 ng/ml) of 13%.
As to `CC[C@@H]1CN2CCc3c([nH]c4cccc(OC)c34)[C@H]2C[C@@H]1/C(=C\OC)C(=O)OC` (stereo in doubt) [Mitragynine, (E)-2-[(2S,3S,12bS)-3-ethyl-8-methoxy-1,2,3,4,6,7,12,12b-octahydroindolo[2,3-a]quinozilizin-2-yl]-3-methoxy propenoic acid methyl ester], the “IC50 (standard concentration which produces 50% B/B0)” value worked out at 1.193 ng/mL (≈ 2.99 nM) and the “% CR (percentage cross-reactivity based on 100% specificity to mitragynine)” value was 100.00%. The same compound came in with a B/Bo (calibrator 0.313 ng/ml) of 75%. For the setting “calibrator 0.625 ng/ml”, this compound came in with a B/Bo of 63%. This compound showed a B/Bo (calibrator 1.250 ng/ml) of 49%. This compound also came in with a B/Bo (calibrator 2.500 ng/ml) of 37%. Under “calibrator 5.000 ng/ml”, this compound displayed a B/Bo of 25%. The compound further had a B/Bo (calibrator 10.000 ng/ml) of 17%. In addition, the B/Bo (calibrator 20.000 ng/ml) came to 11%.
